Results from US8329686B2, “Isatin analogues and uses therefor” (Washington University, priority 2006, dated 2012).
Read-outs that look alike come from different tables or passages of the source.

Key:
caspase-3 = target: T1, caspase-3 (Homo sapiens, UniProt P42574); assay: Enzyme inhibition assay, caspase 3 (fluorogenic Ac-DEVD-AMC); assay type: biochemical
T1 construct: purchased Sigma-Aldrich (St. Louis, Mo.)
T1 sequence (P42574 29-175 limits assumed): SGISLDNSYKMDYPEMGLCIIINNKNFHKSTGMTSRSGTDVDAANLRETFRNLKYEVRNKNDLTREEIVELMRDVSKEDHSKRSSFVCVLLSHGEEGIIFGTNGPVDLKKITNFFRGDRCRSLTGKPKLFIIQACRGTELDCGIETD
T1 sequence (P42574 176-277 limits assumed): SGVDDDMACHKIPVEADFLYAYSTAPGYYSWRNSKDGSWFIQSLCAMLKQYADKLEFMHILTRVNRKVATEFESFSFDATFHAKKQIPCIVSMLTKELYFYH

caspase 7 = target: T2, caspase 7 (Homo sapiens, UniProt P55210); assay: Enzyme inhibition assay, caspase 7 (fluorogenic Ac-DEVD-AMC); assay type: biochemical
T2 construct: purchased Sigma-Aldrich (St. Louis, Mo.)
T2 sequence (P55210 24-198 limits assumed): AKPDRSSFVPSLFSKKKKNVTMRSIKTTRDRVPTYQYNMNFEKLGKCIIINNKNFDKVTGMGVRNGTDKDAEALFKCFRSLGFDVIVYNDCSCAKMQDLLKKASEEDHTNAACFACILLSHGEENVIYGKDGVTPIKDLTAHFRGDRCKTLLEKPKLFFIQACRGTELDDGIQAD
T2 sequence (P55210 207-303 limits assumed): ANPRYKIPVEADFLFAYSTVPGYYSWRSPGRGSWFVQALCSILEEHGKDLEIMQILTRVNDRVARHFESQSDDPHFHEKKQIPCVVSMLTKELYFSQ
Procedure: (§1) Enzyme Assays. Inhibition of recombinant human caspase-3 and other caspases by the isatin analogues was assessed using a fluorometric assay by measuring the accumulation of a fluorogenic product, 7-amino-4-methylcoumarin (7-AMC).
(§2) Enzyme Inhibition Assays. Recombinant human caspases (3, 6, 7, and 8) and their peptide-specific substrates (Ac-DEVDAMC, Ac-VEID-AMC, Ac-DEVD-AMC, and Ac-IETD-AMC, respectively) were purchased from Sigma-Aldrich (St. Louis, Mo.) with the exception of caspase 1 and its substrate (Ac-YVAD-AMC), which were obtained from BIOMOL Research Laboratories (Plymouth Meeting, Pa.). The enzymatic activity of caspases was determined by measuring the accumulation of the fluorogenic product 7-amino-4-methylcoumarin (AMC). All assays were prepared in 96-well format at a volume of 210 μL per well and consisted of 100 mM Na+ HEPES (pH 7.4), 10% sucrose, 100 mM NaCl, 0.1% CHAPS, 5 mM 2-mercaptoethanol, 2 mM EDTA, 10 μM Ac-YVAD-AMC (caspase 1); 20 mMNa^+ HEPES (pH 7.4), 10% sucrose, 100 mMNaCl, 0.1% CHAPS, 2 mM EDTA, 10 μM Ac-DEVD-AMC (caspase 3); 20 mM Na^+ HEPES (pH 7.4), 10% sucrose, 100 mM NaCl, 0.1% CHAPS, 2 mM EDTA, 10 μM Ac-VEID-AMC (caspase 6); 20 mM Na+ HEPES (pH 7.4), 100 mM NaCl, 10% sucrose, 0.1% CHAPS, 5 mM 2-mercaptoethanol, 2 mM EDTA, 10 μM Ac-DEVD-AMC (caspase 7); 20 mM Na+ HEPES (pH 7.4), 10% sucrose, 100 mM NaCl, 0.1% CHAPS, 2 mM EDTA, 10 μM Ac-IETD-AMC (caspase 8).
(§3) Recombinant caspases were first assayed to determine the optimal concentration for each experiment. Optimal concentrations were based in the linear range of the enzyme activation curves. Peptide inhibitors with known IC50 values were tested together with the compounds as a control for each caspase assay. […] Peptide and nonpeptide inhibitors were dissolved in DMSO, and a 2 serial dilution was performed prior to screening in order to obtain desired concentrations. 10 μL was added to each well containing 100 μL caspase solution and allowed to incubate on ice for 30 min. […] The final concentration of DMSO in all wells was 5% of the total volume. In caspase-1 and caspase-7 assays, 10 mM 2-mercaptoethanol was added to the substrate solution for full activation of the enzymes.
(§4) Compounds were tested in duplicate, and IC50 curves were calculated for all inhibitors assayed. Final IC50s were the average of three independent experiments.

caspase 1 = target: T3, caspase 1 (Homo sapiens, UniProt P29466); assay: Enzyme inhibition assay, caspase 1 (fluorogenic Ac-YVAD-AMC); assay type: biochemical
T3 construct: purchased BIOMOL Research Laboratories (Plymouth Meeting, Pa.)
T3 sequence (P29466 120-297 limits assumed): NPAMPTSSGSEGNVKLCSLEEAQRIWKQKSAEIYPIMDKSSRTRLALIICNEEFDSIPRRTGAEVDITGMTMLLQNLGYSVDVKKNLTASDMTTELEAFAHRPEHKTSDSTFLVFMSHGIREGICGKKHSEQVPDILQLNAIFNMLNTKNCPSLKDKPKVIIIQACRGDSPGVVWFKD
T3 sequence (P29466 317-404 limits assumed): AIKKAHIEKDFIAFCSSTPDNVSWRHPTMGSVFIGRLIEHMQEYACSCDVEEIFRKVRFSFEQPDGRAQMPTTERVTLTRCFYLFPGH
Procedure: as §1, §2, §3, §4

caspase 6 = target: T4, caspase 6 (Homo sapiens, UniProt P55212); assay: Enzyme inhibition assay, caspase 6 (fluorogenic Ac-VEID-AMC); assay type: biochemical
T4 construct: purchased Sigma-Aldrich (St. Louis, Mo.)
T4 sequence (P55212 24-179 limits assumed): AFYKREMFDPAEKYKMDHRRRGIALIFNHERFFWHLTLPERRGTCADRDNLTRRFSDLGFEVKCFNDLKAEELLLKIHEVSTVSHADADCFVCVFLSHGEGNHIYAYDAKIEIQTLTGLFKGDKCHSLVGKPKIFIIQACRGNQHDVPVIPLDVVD
T4 sequence (P55212 194-293 limits assumed): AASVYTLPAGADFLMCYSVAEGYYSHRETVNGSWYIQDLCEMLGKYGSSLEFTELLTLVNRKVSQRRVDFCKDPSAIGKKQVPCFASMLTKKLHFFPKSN
Procedure: as §1, §2, §3, §4

caspase 8 = target: T5, caspase 8 (Homo sapiens, UniProt Q14790); assay: Enzyme inhibition assay, caspase 8 (fluorogenic Ac-IETD-AMC); assay type: biochemical
T5 construct: purchased Sigma-Aldrich (St. Louis, Mo.)
T5 sequence (Q14790 217-374 limits assumed): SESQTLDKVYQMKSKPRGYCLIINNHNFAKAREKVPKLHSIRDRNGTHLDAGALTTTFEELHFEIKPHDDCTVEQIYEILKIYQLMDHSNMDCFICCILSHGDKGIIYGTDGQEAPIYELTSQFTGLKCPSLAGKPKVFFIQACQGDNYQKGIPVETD
T5 sequence (Q14790 385-479 limits assumed): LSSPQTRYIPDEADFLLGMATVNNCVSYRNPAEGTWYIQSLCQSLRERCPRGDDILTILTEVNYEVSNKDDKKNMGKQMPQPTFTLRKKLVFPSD

[1] = Table 4, read-out: IC50 (nM) caspase-3
[2] = Table 4, read-out: IC50 (nM) caspase-7
[3] = Table 5, read-out: IC50 (nM) caspase-3
[4] = Table 5, read-out: IC50 (nM) caspase-7
[5] = Table 2, read-out: IC50 (nM) Caspase 1
[6] = Table 2, read-out: IC50 (nM) Caspase 3
[7] = Table 2, read-out: IC50 (nM) Caspase 6
[8] = Table 2, read-out: IC50 (nM) Caspase 7
[9] = Table 2, read-out: IC50 (nM) Caspase 8
[10] = Table 1, read-out: IC50 (nM) Caspase 1
[11] = Table 1, read-out: IC50 (nM) Caspase 3
[12] = Table 1, read-out: IC50 (nM) Caspase 6
[13] = Table 1, read-out: IC50 (nM) Caspase 7
[14] = Table 1, read-out: IC50 (nM) Caspase 8

Molecule `O=C1C(=O)N(Cc2ccccc2)c2ccc(S(=O)(=O)N3CCC[C@H]3COc3ccccc3)cc21` [Compound 2, (S)-1-Benzyl-5-(2-phenoxymethyl-pyrrolidine-1-sulfonyl)-1H-indole-2,3-dione] has an IC50 (caspase-3; [1]) of 12.2 ± 0.3 nM, an IC50 (caspase 7; [2]) of 28 ± 0.7 nM and a melting point of 97.2 to 99.1 °C.
Molecule `O=C1C(=O)N(Cc2ccc(F)cc2)c2ccc(S(=O)(=O)N3CCC[C@H]3COc3ccccc3)cc21` [Compound 11c, (S)-1-(4-Fluorobenzyl)-5-(2-phenoxymethyl-pyrrolidine-1-sulfonyl)-1H-indole-2,3-dione] has a melting point of 74.5 to 75.4 °C.
`CSc1ccc(CN2C(=O)C(=O)c3cc(S(=O)(=O)N4CCC[C@H]4COc4ccccc4)ccc32)cc1` [Compound 11d, (S)-1-(4-Methylthiobenzyl)-5-(2-phenoxymethyl-pyrrolidine-1-sulfonyl)-1H-indole-2,3-dione] gave a melting point of 175.4 to 176.8 °C.
Molecule `O=C1C(=O)N(Cc2ccnc(F)c2)c2ccc(S(=O)(=O)N3CCC[C@H]3COc3ccccc3)cc21` [Compound 11h, (S)-1-(2-Fluoro-pyridin-4-yl-methyl)-5-(2-phenoxymethyl-pyrrolidine-1-sulfonyl)-1H-indole-2,3-dione] has an IC50 (caspase-3; [1]) of 21.3 ± 3.2 nM, an IC50 (caspase 7; [2]) of 58 ± 2.8 nM and a melting point of 180.1 to 181.9 °C.
For `O=C1C(=O)N(Cc2cccc(F)n2)c2ccc(S(=O)(=O)N3CCC[C@H]3COc3ccccc3)cc21` [Compound 11i, (S)-1-(6-Fluoro-pyridin-2-yl-methyl)-5-(2-phenoxymethyl-pyrrolidine-1-sulfonyl)-1H-indole-2,3-dione], the IC50 (caspase-3; [1]) was 9.1 ± 1.8 nM, the IC50 (caspase 7; [2]) was 22.2 ± 4 nM and the melting point was 128.6 to 129.4 °C.
In the case of `O=C1Nc2ccc(S(=O)(=O)N3CC[C@H]3COc3ccccc3)cc2C1=O` [Compound 17, (S)-5-(2-Phenoxymethyl-azetidine-1-sulfonyl)-1H-indole-2,3-dione], the IC50 (caspase-3; [3]) is reported as 287 ± 24.7 nM, the IC50 (caspase 7; [4]) is reported as 1350 ± 141 nM and the “fold less potent for inhibiting caspase-7” value (caspase 7; relative to the corresponding pyrrolidine analogue 10) is reported as greater than 2 fold. The melting point was 173.2 to 174.5 °C.
Molecule `CN1C(=O)C(=O)c2cc(S(=O)(=O)N3CC[C@H]3COc3ccccc3)ccc21` [Compound 18a, (S)-1-Methyl-5-(2-phenoxymethyl-azetidine-1-sulfonyl)-1H-indole-2,3-dione] has an IC50 (caspase-3; [3]) of 91.7 ± 7.6 nM, an IC50 (caspase 7; [4]) of 362.5 ± 3.5 nM and a melting point of 173.5 to 174.9 °C.
`O=C1C(=O)N(Cc2ccccc2)c2ccc(S(=O)(=O)N3CC[C@H]3COc3ccccc3)cc21` [Compound 18b, (S)-1-Benzyl-5-(2-phenoxymethyl-azetidine-1-sulfonyl)-1H-indole-2,3-dione] showed an IC50 (caspase-3; [3]) of 9.7 ± 1.6 nM, an IC50 (caspase 7; [4]) of 29.5 ± 4.9 nM and a melting point of 157.1 to 158.9 °C.
With `COc1ccc(CN2C(=O)C(=O)c3cc(S(=O)(=O)N4CC[C@H]4COc4ccccc4)ccc32)cc1` [Compound 18c, (S)-1-(4-Methoxybenzyl)-5-(2-phenoxymethyl-azetidine-1-sulfonyl)-1H-indole-2,3-dione] the IC50 (caspase-3; [3]) was 8.4 ± 1.2 nM, the IC50 (caspase 7; [4]) was 23.2 ± 3 nM and the melting point was 159.8 to 161.5 °C.
`CSc1ccc(CN2C(=O)C(=O)c3cc(S(=O)(=O)N4CC[C@H]4COc4ccccc4)ccc32)cc1` [Compound 18d, (S)-1-(4-Methylthiobenzyl)-5-(2-phenoxymethyl-azetidine-1-sulfonyl)-1H-indole-2,3-dione] showed an IC50 (caspase-3; [3]) of 11.3 ± 1.2 nM, an IC50 (caspase 7; [4]) of 26.7 ± 7.2 nM and a melting point of 167.6 to 169.2 °C.
`O=C1C(=O)N(Cc2ccc(F)cc2)c2ccc(S(=O)(=O)N3CC[C@H]3COc3ccccc3)cc21` [Compound 18e, (S)-1-(4-Fluorobenzyl)-5-(2-phenoxymethyl-azetidine-1-sulfonyl)-1H-indole-2,3-dione] gave an IC50 (caspase-3; [3]) of 8.8 ± 1.4 nM, an IC50 (caspase 7; [4]) of 21 ± 5.6 nM and a melting point of 164.6 to 165.7 °C.
In the case of `O=C1C(=O)N(Cc2ccccc2F)c2ccc(S(=O)(=O)N3CC[C@H]3COc3ccccc3)cc21` [Compound 18f, (S)-1-(2-Fluorobenzyl)-5-(2-phenoxymethyl-azetidine-1-sulfonyl)-1H-indole-2,3-dione], the IC50 (caspase-3; [3]) is reported as 9.4 ± 0.3 nM, the IC50 (caspase 7; [4]) is reported as 26 ± 5.2 nM and the melting point is reported as 147.1 to 148 °C.
Work on `O=C1C(=O)N(Cc2ccc(F)nc2)c2ccc(S(=O)(=O)N3CC[C@H]3COc3ccccc3)cc21` [Compound 18g, (S)-1-(6-Fluoropyridin-3-ylmethyl)-5-(2-phenoxymethylazetidine-1-sulfonyl)-1H-indole-2,3-dione] yielded an IC50 (caspase-3; [3]) of 10.9 ± 1.4 nM, an IC50 (caspase 7; [4]) of 17 ± 3 nM and a melting point of 176.8 to 178.3 °C.
With `O=C1C(=O)N(Cc2ccnc(F)c2)c2ccc(S(=O)(=O)N3CC[C@H]3COc3ccccc3)cc21` [Compound 18h, (S)-1-(2-Fluoropyridin-4-yl-methyl)-5-(2-phenoxymethylazetidine-1-sulfonyl)-1H-indole-2,3-dione] the IC50 (caspase-3; [3]) was 29.2 ± 5.2 nM, the IC50 (caspase 7; [4]) was 135 ± 7.1 nM and the melting point was 159 to 159.9 °C.
Work on `O=C1C(=O)N(Cc2cccc(F)n2)c2ccc(S(=O)(=O)N3CC[C@H]3COc3ccccc3)cc21` [Compound 18i, (S)-1-(6-Fluoropyridin-2-yl-methyl)-5-(2-phenoxymethylazetidine-1-sulfonyl)-1H-indole-2,3-dione] yielded an IC50 (caspase-3; [3]) of 5.8 ± 1 nM, an IC50 (caspase 7; [4]) of 22.7 ± 3.1 nM and a melting point of 144.7 to 146.1 °C.
With `N#CC(C#N)=C1C(=O)N(Cc2ccc(OCCF)cc2)c2ccc(S(=O)(=O)N3CCC[C@H]3COc3ccccc3)cc21` [WC-II-92] the IC50 (caspase 1; [5]) was 10000 nM, the IC50 (caspase-3; [6]) was 18.3 ± 0.4 nM and the IC50 (caspase 6; [7]) was 927 ± 35 nM. The IC50 (caspase 7; [8]) was 96.3 ± 20.7 nM and the IC50 (caspase 8; [9]) was greater than 50000 nM.
With `O=C1C(=O)N(Cc2ccc(OCCF)cc2)c2ccc(S(=O)(=O)N3CCC[C@H]3COc3cccnc3)cc21` [WC-II-100] the IC50 (caspase 1; [10]) was greater than 20000 nM, the IC50 (caspase-3; [11]) was 3.1 ± 0.4 nM and the IC50 (caspase 6; [12]) was 6900 nM. For the same molecule, the IC50 (caspase 7; [13]) was 11.3 ± 0.6 nM and the IC50 (caspase 8; [14]) was greater than 50000 nM.
In the case of `O=C1C(=O)N(Cc2ccc(OCCF)cc2)c2ccc(S(=O)(=O)N3CC[C@H]3COc3cccnc3)cc21` [WC-II-101], the IC50 (caspase 1; [10]) is reported as greater than 10000 nM, the IC50 (caspase-3; [11]) is reported as 3.6 ± 0.5 nM and the IC50 (caspase 6; [12]) is reported as 8700 nM. For the same molecule, the IC50 (caspase 7; [13]) was 17.6 ± 0.4 nM and the IC50 (caspase 8; [14]) was greater than 50000 nM.
For `N#CC(C#N)=C1C(=O)N(Cc2ccc(OCCF)cc2)c2ccc(S(=O)(=O)N3CCC[C@H]3COc3cccnc3)cc21` [WC-II-103], the IC50 (caspase 1; [5]) was 3500 nM, the IC50 (caspase-3; [6]) was 7.5 ± 0.2 nM and the IC50 (caspase 6; [7]) was 770 ± 119 nM. It also gave an IC50 (caspase 7; [8]) of 26 ± 5.2 nM and an IC50 (caspase 8; [9]) greater than 50000 nM.
Work on `N#CC(C#N)=C1C(=O)N(Cc2ccc(OCCF)cc2)c2ccc(S(=O)(=O)N3CC[C@H]3COc3cccnc3)cc21` [WC-II-104] yielded an IC50 (caspase 1; [5]) of 2900 nM, an IC50 (caspase-3; [6]) of 7.1 ± 0.6 nM and an IC50 (caspase 6; [7]) of 580 ± 55 nM. For the same molecule, the IC50 (caspase 7; [8]) was 22.7 ± 3.1 nM and the IC50 (caspase 8; [9]) was greater than 50000 nM.
In the case of “(S)-1-(4-Methoxybenzyl)-5-(2-phenoxymethyl-pyrrolidine-1-sulfonyl)-1H-indole-2,3-dione [Compound 11b]”, the IC50 (caspase 1; Table 4, read-out: IC50 (nM) caspase-1) is reported as greater than 10000 nM, the IC50 (caspase-3; [1]) is reported as 14.5 ± 1.6 nM and the IC50 (caspase 6; Table 4, read-out: IC50 (nM) caspase-6) is reported as greater than 5000 nM. It also gave an IC50 (caspase 7; [2]) of 21.8 ± 3.5 nM and an IC50 (caspase 8; Table 4, read-out: IC50 (nM) caspase-8) greater than 50000 nM.
